Square brackets hold non-standard residues; d marks the D form. Peptide text beside a SMILES is read from it. * marks the point of attachment. Orn = NCCC[C@H](N)C(=O)O; Hexanoyl = CCCCCC(=O)*; Aib = CC(C)(N)C(=O)O
Legend:
human VPAC1 = biological target: T1, human VPAC1 (Homo sapiens, UniProt P32241); assay: Filter binding assay, 125I-labeled VIP tracer, VPAC1 membranes; conditions: read-out: Human VPAC1 Receptor Binding (IC50; nM)
T1 construct: expressed in transfected cells
T1 sequence (P32241 31-457): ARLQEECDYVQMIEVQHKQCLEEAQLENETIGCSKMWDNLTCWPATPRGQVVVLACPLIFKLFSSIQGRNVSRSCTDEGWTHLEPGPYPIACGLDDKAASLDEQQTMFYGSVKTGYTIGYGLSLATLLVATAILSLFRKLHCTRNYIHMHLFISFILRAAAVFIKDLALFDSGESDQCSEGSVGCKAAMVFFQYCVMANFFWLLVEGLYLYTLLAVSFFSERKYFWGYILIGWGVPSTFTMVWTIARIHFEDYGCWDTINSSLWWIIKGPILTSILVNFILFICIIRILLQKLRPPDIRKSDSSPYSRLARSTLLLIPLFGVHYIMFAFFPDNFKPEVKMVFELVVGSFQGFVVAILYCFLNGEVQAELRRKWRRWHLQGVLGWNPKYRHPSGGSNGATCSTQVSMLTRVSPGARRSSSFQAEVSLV
Method: For this assay, the solutions and equipment include:
Presoak solution: 0.5% Polyethyleneamine in Aqua dest
Buffer for flushing filter plates: 25 mM HEPES pH 7.4
Blocking buffer: 25 mM HEPES pH 7.4; 0.2% protease free BSA
Assay buffer: 25 mM HEPES pH 7.4; 0.5% protease free BSA
Dilution and assay plate: PS-Microplate, U form
Filtration Plate: Multiscreen FB Opaque Plate; 1.0 μM Type B Glasfiber filter
In order to prepare the filter plates, the presoak solution is aspirated by vacuum filtration. The plates are flushed twice with 200 μL flush buffer. 200 μL blocking buffer is added to the filter plate. The filter plate is then incubated with 200 μL presoak solution for 1 hour at room temperature.
The assay plate is filled with 25 μL assay buffer, 25 μL membranes (2.5 μg) suspended in assay buffer, 25 μL compound (agonist) in assay buffer, and 25 μL tracer (about 40000 cpm) in assay buffer. The filled plate is incubated for 1 hour with shaking.
The transfer from assay plate to filter plate is conducted. The blocking buffer is aspirated by vacuum filtration and washed two times with flush buffer. 90 μL is transferred from the assay plate to the filter plate. The 90 μL transferred from assay plate is aspirated and washed three times with 200 μL flush buffer. The plastic support is removed. It is dried for 1 hour at 60° C. 30 μL Microscint is added. The count is performed.

[1] = Rat serum stability (activity remaining, CHO-VPAC2 DiscoveRx read-out); type: in vitro ADME
Method: The rat serum is stored at 4° C. until use and is used within two weeks. […] The aliquot is stored with aprotinin at 4° C. The aliquot is stored without aprotinin at 37° C. The aliquots are incubated overnight. […] The plate(s) are washed with cells twice in incubation buffer. The plates are allowed to hold 50 μL incubation media per well for 15 minutes. 50 μL solution per well is transferred to the cells from the plate prepared with 11 serial 5× dilutions of peptide for the 4° C. and 37° C. aliquot for each peptide studied, using the maximal concentrations that are indicated by the primary screen, in duplicate. This step dilutes the peptide concentration by a factor of two. The cells are incubated at room temperature for 30 minutes. […] The cells are incubated on the shaker (300 rpm) for 1 hour. Normal procedure with the DiscoveRx kit is followed. cAMP standards are included in column 12. EC50 values are determined from the cAMP assay data.

human PAC1 = biological target: T2, human PAC1 (Homo sapiens, UniProt P41586); assay: Filter binding assay, 125I-labeled PACAP-27 tracer, PAC1 membranes; conditions: read-out: Human PAC1 Receptor Binding (IC50; nM)
T2 construct: expressed in transfected cells
T2 sequence (P41586 21-468): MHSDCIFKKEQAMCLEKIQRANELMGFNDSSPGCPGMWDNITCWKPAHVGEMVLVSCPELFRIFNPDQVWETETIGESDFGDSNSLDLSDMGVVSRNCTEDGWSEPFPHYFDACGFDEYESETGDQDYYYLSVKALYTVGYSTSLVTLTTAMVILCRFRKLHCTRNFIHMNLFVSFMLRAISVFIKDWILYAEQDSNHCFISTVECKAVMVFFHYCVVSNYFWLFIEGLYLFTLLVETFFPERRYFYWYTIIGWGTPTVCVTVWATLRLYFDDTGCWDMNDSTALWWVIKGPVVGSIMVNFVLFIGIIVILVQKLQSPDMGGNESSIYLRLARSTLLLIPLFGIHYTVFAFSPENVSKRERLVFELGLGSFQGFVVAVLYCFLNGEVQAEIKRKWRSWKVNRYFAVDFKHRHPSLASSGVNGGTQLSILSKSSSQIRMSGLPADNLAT

human VPAC2 = biological target: T3, human VPAC2 (Homo sapiens, UniProt P41587); assay: Alpha screen cAMP assay, in vitro potency at human VPAC2 receptor; type: cell-based; conditions: cAMP generation; single result from two analyses in a single run, some values average of more than one experiment
T3 construct: expressed in transfected cells
T3 sequence (P41587 24-438): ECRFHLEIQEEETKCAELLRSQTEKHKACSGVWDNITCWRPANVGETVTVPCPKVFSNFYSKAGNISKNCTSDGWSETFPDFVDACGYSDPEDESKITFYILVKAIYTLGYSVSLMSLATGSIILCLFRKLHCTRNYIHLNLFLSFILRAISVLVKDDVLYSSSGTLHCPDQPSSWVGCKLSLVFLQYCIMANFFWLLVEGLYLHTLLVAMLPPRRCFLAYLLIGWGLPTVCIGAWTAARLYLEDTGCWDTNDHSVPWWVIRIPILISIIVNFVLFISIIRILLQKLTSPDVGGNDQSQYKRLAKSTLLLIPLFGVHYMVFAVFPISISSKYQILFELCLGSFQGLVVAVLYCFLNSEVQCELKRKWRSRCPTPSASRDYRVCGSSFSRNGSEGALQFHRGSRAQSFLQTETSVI

## CCCCCC(=O)N[C@@H](Cc1c[nH]cn1)C(=O)N[C@@H](CO)C(=O)N[C@@H](CC(=O)O)C(=O)N[C@@H](C)C(=O)N[C@H](C(=O)N[C@@H](Cc1ccccc1)C(=O)N[C@H](C(=O)N[C@@H](CC(=O)O)C(=O)N[C@@H](CC(N)=O)C(=O)N[C@@H](Cc1ccc(O)cc1)C(=O)N[C@H](C(=O)N[C@@H](CCCN)C(=O)N[C@@H](CC(C)C)C(=O)N[C@@H](CCCNC(=N)N)C(=O)NC(C)(C)C(=O)N[C@@H](CCC(N)=O)C(=O)N[C@H](C(=O)N[C@@H](C)C(=O)N[C@@H](C)C(=O)NC(C)(C)C(=O)N[C@@H](CCCN)C(=O)N[C@@H](Cc1ccc(O)cc1)C(=O)N[C@@H](CC(C)C)C(=O)N[C@@H](CCC(N)=O)C(=O)N[C@@H](CO)C(=O)N[C@H](C(=O)N[C@@H](CCCN)C(=O)N[C@@H](CCCN)C(=O)NCC(=O)NCC(=O)N1CCC[C@H]1C(=O)N[C@@H](CO)C(=O)N[C@@H](CO)C(=O)NCC(=O)N[C@@H](C)C(=O)N1CCC[C@H]1C(=O)N1CCC[C@H]1C(=O)N1CCC[C@H]1C(=O)N[C@@H](CO)C(=O)O)[C@@H](C)CC)C(C)C)[C@@H](C)O)[C@@H](C)O)C(C)C [Agonist P397] (Hexanoyl-HSDAVFTDNYT[Orn]LR[Aib]QVAA[Aib][Orn]YLQSI[Orn][Orn]GGPSSGAPPPS-OH; C-terminus assumed)
Human VPAC1
  IC50: > 3000 nM
[1]
  Rat Serum Stability (estimated purity in % after overnight incub.): 71.07%
Human PAC1
  IC50: > 25000 nM
Human VPAC2
  EC50: 0.15 nM

## CCCCCC(=O)N[C@@H](Cc1c[nH]cn1)C(=O)N[C@@H](CO)C(=O)N[C@@H](CC(=O)O)C(=O)N[C@@H](C)C(=O)N[C@H](C(=O)N[C@@H](Cc1ccccc1)C(=O)N[C@H](C(=O)N[C@@H](CC(=O)O)C(=O)N[C@@H](CC(N)=O)C(=O)N[C@@H](Cc1ccc(O)cc1)C(=O)N[C@H](C(=O)N[C@@H](CCCNC(=N)N)C(=O)N[C@@H](CC(C)C)C(=O)N[C@@H](CCCNC(=N)N)C(=O)NC(C)(C)C(=O)N[C@@H](CCC(N)=O)C(=O)N[C@H](C(=O)N[C@@H](C)C(=O)N[C@@H](C)C(=O)NC(C)(C)C(=O)N[C@@H](CCCCN)C(=O)N[C@@H](Cc1ccc(O)cc1)C(=O)N[C@@H](CC(C)C)C(=O)N[C@@H](CCC(N)=O)C(=O)N[C@@H](CO)C(=O)N[C@H](C(=O)N[C@@H](CCCCN)C(=O)NC(C)(C)C(=O)N[C@@H](CCCN)C(=O)NCC(=O)NCC(=O)N1CCC[C@H]1C(=O)N[C@@H](CO)C(=O)N[C@@H](CO)C(=O)NCC(=O)N[C@@H](C)C(=O)N1CCC[C@H]1C(=O)N1CCC[C@H]1C(=O)N1CCC[C@H]1C(=O)N[C@@H](CO)C(=O)O)[C@@H](C)CC)C(C)C)[C@@H](C)O)[C@@H](C)O)C(C)C [Agonist P357]
Human VPAC1
  IC50: > 3000 nM
[1]
  Rat Serum Stability (estimated purity in % after overnight incub.): 38.83%
Human PAC1
  IC50: > 25000 nM
Human VPAC2
  EC50: 0.23 nM

## CCCCCC(=O)N[C@@H](Cc1c[nH]cn1)C(=O)N[C@@H](CO)C(=O)N[C@@H](CC(=O)O)C(=O)N[C@@H](C)C(=O)N[C@H](C(=O)N[C@@H](Cc1ccccc1)C(=O)N[C@H](C(=O)N[C@@H](CC(=O)O)C(=O)N[C@@H](CC(N)=O)C(=O)N[C@@H](Cc1ccc(O)cc1)C(=O)N[C@H](C(=O)N[C@@H](CCCN)C(=O)N[C@@H](CO)C(=O)N[C@@H](CCCNC(=N)N)C(=O)NC(C)(C)C(=O)N[C@@H](CCC(N)=O)C(=O)N[C@H](C(=O)N[C@@H](C)C(=O)N[C@@H](C)C(=O)NC(C)(C)C(=O)N[C@@H](CCCCN)C(=O)N[C@@H](Cc1ccc(O)cc1)C(=O)N[C@@H](CC(C)C)C(=O)N[C@@H](CCC(N)=O)C(=O)N[C@@H](CO)C(=O)N[C@H](C(=O)N[C@@H](CCCN)C(=O)N[C@@H](CC(N)=O)C(=O)N[C@@H](CCCN)C(=O)NCC(=O)NCC(=O)N1CCC[C@H]1C(=O)N[C@@H](CO)C(=O)N[C@@H](CO)C(=O)NCC(=O)N[C@@H](C)C(=O)N1CCC[C@H]1C(=O)N1CCC[C@H]1C(=O)N1CCC[C@H]1C(=O)N[C@@H](CO)C(=O)O)[C@@H](C)CC)C(C)C)[C@@H](C)O)[C@@H](C)O)C(C)C [Agonist P391] (Hexanoyl-HSDAVFTDNYT[Orn]SR[Aib]QVAA[Aib]KYLQSI[Orn]N[Orn]GGPSSGAPPPS-OH; C-terminus assumed)
Human PAC1
  IC50: > 25000 nM
Human VPAC2
  EC50: 0.48 nM

## CCCCCC(=O)N[C@@H](Cc1c[nH]cn1)C(=O)N[C@@H](CO)C(=O)N[C@@H](CC(=O)O)C(=O)N[C@@H](C)C(=O)N[C@H](C(=O)N[C@@H](Cc1ccccc1)C(=O)N[C@H](C(=O)N[C@@H](CC(=O)O)C(=O)N[C@@H](CC(N)=O)C(=O)N[C@@H](Cc1ccc(O)cc1)C(=O)N[C@H](C(=O)N[C@@H](CCCN)C(=O)N[C@@H](CC(C)C)C(=O)N[C@@H](CCCNC(=N)N)C(=O)NC(C)(C)C(=O)N[C@@H](CCC(N)=O)C(=O)N[C@H](C(=O)N[C@@H](C)C(=O)N[C@@H](C)C(=O)NC(C)(C)C(=O)N[C@@H](CCCCN)C(=O)N[C@@H](Cc1ccc(O)cc1)C(=O)N[C@@H](CC(C)C)C(=O)N[C@@H](CCC(N)=O)C(=O)N[C@@H](CO)C(=O)N[C@@H](CO)C(=O)N[C@@H](CCCN)C(=O)N[C@@H](CC(N)=O)C(=O)N[C@@H](CCCN)C(=O)NCC(=O)NCC(=O)N1CCC[C@H]1C(=O)N[C@@H](CO)C(=O)N[C@@H](CO)C(=O)NCC(=O)N[C@@H](C)C(=O)N1CCC[C@H]1C(=O)N1CCC[C@H]1C(=O)N1CCC[C@H]1C(=O)N[C@@H](CO)C(=O)O)C(C)C)[C@@H](C)O)[C@@H](C)O)C(C)C [Agonist P382] (Hexanoyl-HSDAVFTDNYT[Orn]LR[Aib]QVAA[Aib]KYLQSS[Orn]N[Orn]GGPSSGAPPPS-OH; C-terminus assumed)
Human VPAC1
  IC50: > 3000 nM
[1]
  Rat Serum Stability (estimated purity in % after overnight incub.): 92.34%
Human PAC1
  IC50: > 25000 nM

## CCCCCC(=O)N[C@@H](Cc1c[nH]cn1)C(=O)N[C@@H](CO)C(=O)N[C@@H](CC(=O)O)C(=O)N[C@@H](C)C(=O)N[C@H](C(=O)N[C@@H](Cc1ccccc1)C(=O)N[C@H](C(=O)N[C@@H](CC(=O)O)C(=O)N[C@@H](CC(N)=O)C(=O)N[C@@H](Cc1ccc(O)cc1)C(=O)N[C@H](C(=O)N[C@@H](CCCN)C(=O)N[C@@H](CC(C)C)C(=O)N[C@@H](CC(C)C)C(=O)N[C@@H](C)C(=O)N[C@@H](CCCCN)C(=O)N[C@@H](CC(C)C)C(=O)N[C@@H](C)C(=O)N[C@@H](CC(C)C)C(=O)N[C@@H](CCC(N)=O)C(=O)N[C@@H](CCCCN)C(=O)N[C@@H](Cc1ccc(O)cc1)C(=O)N[C@@H](CC(C)C)C(=O)N[C@@H](CCC(N)=O)C(=O)N[C@@H](CO)C(=O)N[C@H](C(=O)N[C@@H](CCCN)C(=O)N[C@@H](CC(N)=O)C(=O)N[C@@H](CCCN)C(=O)NCC(=O)NCC(=O)N1CCC[C@H]1C(=O)N[C@@H](CO)C(=O)N[C@@H](CO)C(=O)NCC(=O)N[C@@H](C)C(=O)N1CCC[C@H]1C(=O)N1CCC[C@H]1C(=O)N1CCC[C@H]1C(=O)N[C@@H](CO)C(=O)O)[C@@H](C)CC)[C@@H](C)O)[C@@H](C)O)C(C)C [Agonist P371] (Hexanoyl-HSDAVFTDNYT[Orn]LLAKLALQKYLQSI[Orn]N[Orn]GGPSSGAPPPS-OH; C-terminus assumed)
Human PAC1
  IC50: > 25000 nM
Human VPAC2
  EC50: 0.13 nM

From patent publication US20080194482A1, “Selective Apac2 Receptor Peptide Agonists” (priority 2005, published 2008)
